Assay [1] is described as follows: Antioxidant activity assay (ABTS working solution, 734 nm). Here is the method: The antioxidant activity assay was based on the reported methods. The assay was performed on a 96-well microplate, the reaction was initiated by adding 10 µL of sample solution to 200 µL of ABTS working solution. […] The inhibition rate of each sample was calculated according to the following formula: inhibition rate = [(Ablank − Acompound)/Ablank] × 100%.

The target in assay [2] is α-glucosidase. The experiment in a line: Inhibitory activity against α-glucosidase (PNPG, 405 nm). As to conditions: read-out: α-glucosidase inhibitory activity IC50; 37 °C, pH 6.8, PNPG substrate.
In assay [3] the test system is S. epidermidis (ATCC 17749). Put plainly: Antibacterial activity, microplate assay. It is filed as cell-based. The settings on record: Staphylococcus epidermidis, ATCC17749.

Our source for the IC50 and MIC values is paper PMC9229493, “Talaromarins A–F: Six New Isocoumarins from Mangrove-Derived Fungus Talaromyces flavus TGGP35” (Marine Drugs, 2022).

In brackets after ≈: the same amount, converted by molar mass.

In turn, `COc1ccc2c(c1O)C(=O)O[C@H](CCCO)C2` [Compound 8, peniciisocoumarin C] showed a 50% inhibitory concentration (IC50) in assay [1] of 130 µM.

`CC(O)CCCC1Cc2c(ccc(O)c2O)C(=O)O1` (centres unmarked) [Compound 10, 5,6-dihydroxy-3-(4-hydroxypentyl)-isochroman-1-one]: the figures for the IC50 in assay [2] and in assay [1] were 100 µM and 110 µM, respectively. Compound `COc1ccc(O)c2c1C(=O)O[C@H](CCCC(C)=O)C2` [Compound 17, penicimarin H] gave an IC50 in assay [1] of 120 µM. For `COc1c(C)c(O)cc2cc(C[C@H](C)O)oc(=O)c12` [Compound 23, pestalotiorin], the IC50 in assay [2] amounted to 540 µM. In assay [1], `Cc1c(C)c2c(c(C)c1O)CCC(C)(C(=O)O)O2` (centres unmarked) [Trolox, trolox, reference compound] yielded an IC50 of 290 µM. On to `COC(=O)CC[C@@H]1Cc2ccc(OC)c(O)c2C(=O)O1` [Compound 21, penicimarin N], for which, in assay [2], the concentration for half-maximal inhibition (IC50) amounted to 620 µM. For the compound `O=C1O[C@H](CCCO)Cc2cccc(O)c21` [Compound 7, (R)-3-(3-hydroxypropyl)-8-hydroxy-3,4-dihydroisocoumarin], 170 µM corresponded to half-maximal inhibition in assay [1] (IC50). The same measure, in the same setting: the result for `COc1c(O)ccc2c1C(=O)OC(CCCO)C2` (centres unmarked) [Compound 9, 7-hydroxy-3-(3-hydroxypropyl)-8-methoxyisochroman-1-one] reads 100 µM. `O=C(O)c1cn(C2CC2)c2cc(N3CCNCC3)c(F)cc2c1=O` [ciprofloxacin] came in with an MIC in assay [3] of 0.195 µg/mL (≈ 0.589 µM).

Turning to `COc1c(O)ccc2c1C(=O)O[C@H](CCCC(C)=O)C2` [Compound 18, peniciisocoumarin D], the half-inhibitory concentration (IC50) was found to be 380 µM in assay [2] and 160 µM in assay [1]. For `Cc1c(O)cc2cc(CC(C)O)oc(=O)c2c1O` (centres unmarked) [Compound 22, 6,8-dihydroxy-3-(2-hydroxypropyl)-7-methyl-1H-isochromen-1-one], the IC50 in assay [1] was 9 µM. For `CC(O)CCCC1Cc2c(O)ccc(O)c2C(=O)O1` (centres unmarked) [Compound 11, peniciisocoumarin F], half-maximal inhibition in assay [1] (IC50) was put at 120 µM.

With `CC(=O)OCCC[C@@H]1Cc2cccc(O)c2C(=O)O1` [Compound 19, peniciisocoumarin G], in assay [1], 150 µM corresponded to half-maximal inhibition (IC50). Consider `COc1ccc2c(c1O)C(=O)O[C@H](CCC[C@@H](C)O)C2` [Compound 2, Talaromarin B], for which the IC50 in assay [1] was determined as 28400 µM.

In assay [1], `CC(=O)CCC[C@@H]1Cc2ccc(O)c(O)c2C(=O)O1` [Compound 6, Talaromarin F] yielded a half-inhibitory concentration (IC50) of 140 µM.
